Measurements as given in publication PMC5467912, “Asymmetric regulation of quorum-sensing receptors drives autoinducer-specific gene expression programs in Vibrio cholerae” (PLoS Genetics, 2017).
Several values for one entry are separate records, joined by “and”; a condition that tells them apart may be missing. Equal entries are not always repeated. Where two headings read alike, the source gives them in different places.

Columns and labels:
CqsS [1] = molecular target: T1, CqsS (Vibrio cholerae serotype O1, UniProt Q9KM66); experiment: cell-based; conditions: for Light production: strain WN1102; for RLU: Strain WN1102
T1 construct: endogenous in cells; host or cells: V. cholerae WN1102 (ΔcqsA ΔluxQ/pBB1), derived from C6706str2

[2] = tested on: QS-controlled luxCDABE operon; assay type: cell-based; conditions: for Light production: LuxS-CqsA- +CAI-1 5 μM; for RLU: Strain AH371
CqsS [3] = assay type: cell-based; conditions: for CqsS Dimers: LuxS-CqsA-, AI-2 1 μM, CAI-1 5 μM, single replicates
hapA = assay type: cell-based; conditions: ΔcqsA ΔluxS strain, HCD
qrr4 = assay type: cell-based
CqsS F162A = experiment: CqsS-dependent repression of qrr4-gfp, CqsS F162A (Fig 7C); assay type: cell-based, Vibrio cholerae; conditions: Treatment 1uM; CqsS mutant F162A
CqsS C170Y = experiment: CqsS-dependent repression of qrr4-gfp, CqsS C170Y (Fig 7C); assay type: cell-based, Vibrio cholerae; conditions: Treatment 1uM; CqsS mutant C170Y
CqsS [4] = molecular target: T1, CqsS; assay type: cell-based; conditions: Strain WN1102

For `CCCCCCCCCC(=O)[C@@H](O)CC` [CAI-1, (S)-3-hydroxytridecan-4-one], the Light production (CqsS [1]; Agonist 0.0119209 nM) was 12889 RLU and 8888.9 RLU and 6804.1 RLU, the Light production (CqsS [1]; Agonist 0.0476837 nM) was 14371 RLU and 11556 RLU and 14048 RLU and the Light production (CqsS [1]; Agonist 0.190735 nM) was 19162 RLU and 15751 RLU and 14725 RLU. For the same compound, the Light production (CqsS [1]; Agonist 0.762939 nM) was 27416 RLU and 24171 RLU and 21376 RLU, the Light production (CqsS [1]; Agonist 3.05176 nM) was 42278 RLU and 41455 RLU and 42909 RLU and the Light production (CqsS [1]; Agonist 12.207 nM) was 141302 RLU and 122637 RLU and 126432 RLU. For the same compound, the Light production (CqsS [1]; Agonist 48.8281 nM) was 2056727 RLU and 1989392 RLU and 2067742 RLU, the Light production (CqsS [1]; Agonist 195.312 nM) was 21777960 RLU and 20597350 RLU and 20387370 RLU and the Light production (CqsS [1]; Agonist 781.25 nM) was 68306990 RLU and 63315740 RLU and 60445960 RLU. The Light production (CqsS [1]; Agonist 3125 nM) was 107684000 RLU and 96526460 RLU and 89440220 RLU, the Light production (CqsS [1]; Agonist 12500 nM) was 110460000 RLU and 105858400 RLU and 100769600 RLU and the Light production (CqsS [1]; Agonist 50000 nM) was 108923600 RLU and 92244980 RLU and 92565550 RLU. The RLU (CqsS [1]; agonist 0.0119209 nM) was 6.03E+03 RLU and 5.88E+03 RLU and 4.06E+03 RLU, the RLU (CqsS [1]; agonist 0.190735 nM) was 1.26E+04 RLU and 1.57E+04 RLU and 1.42E+04 RLU and the RLU (CqsS [1]; agonist 0.762939 nM) was 2.01E+04 RLU and 2.32E+04 RLU and 2.34E+04 RLU. The RLU (CqsS [1]; agonist 3.05176 nM) was 2.95E+04 RLU and 3.11E+04 RLU and 2.71E+04 RLU, the RLU (CqsS [1]; agonist 12.207 nM) was 3.67E+04 RLU and 5.35E+04 RLU and 5.22E+04 RLU and the RLU (CqsS [1]; agonist 48.8281 nM) was 1.20E+05 RLU and 1.71E+05 RLU and 1.56E+05 RLU. For the same compound, the RLU (CqsS [1]; agonist 195.312 nM) was 4.96E+06 RLU and 5.24E+06 RLU and 3.77E+06 RLU, the RLU (CqsS [1]; agonist 781.25 nM) was 5.10E+07 RLU and 6.40E+07 RLU and 5.48E+07 RLU and the RLU (CqsS [1]; agonist 3125 nM) was 1.12E+08 RLU and 1.35E+08 RLU and 1.31E+08 RLU. The RLU (CqsS [1]; agonist 12500 nM) was 1.34E+08 RLU and 1.62E+08 RLU and 1.58E+08 RLU, the RLU (CqsS [1]; agonist 50000 nM) was 1.28E+08 RLU and 1.53E+08 RLU and 1.57E+08 RLU and the Light production ([2]; OD600 0.0198) was 6464646 RLU. It also gave a Light production ([2]; OD600 0.0375) of 5626666 RLU, a Light production ([2]; OD600 0.256) of 957031 RLU and a Light production ([2]; OD600 0.663) of 472096 RLU. The Light production ([2]; OD600 0.982) was 378819 RLU, the Light production ([2]; OD600 1.101) was 133515000 RLU and the RLU ([2]; agonist 0.0476837 nM) was 5.19E+03 RLU and 2.61E+03 RLU. The RLU ([2]; agonist 0.762939 nM) was 2.58E+03 RLU and 5.16E+03 RLU and 2.67E+03 RLU, the RLU ([2]; agonist 3.05176 nM) was 5.00E+03 RLU and 2.56E+03 RLU and 2.61E+03 RLU and the RLU ([2]; agonist 48.8281 nM) was 1.58E+04 RLU and 1.61E+04 RLU and 1.60E+04 RLU. For the same compound, the RLU ([2]; agonist 195.312 nM) was 2.98E+05 RLU and 2.86E+05 RLU and 2.15E+05 RLU, the RLU ([2]; agonist 781.25 nM) was 3.60E+06 RLU and 4.20E+06 RLU and 3.87E+06 RLU and the RLU ([2]; agonist 3125 nM) was 1.30E+07 RLU and 1.41E+07 RLU and 1.40E+07 RLU. The RLU ([2]; agonist 12500 nM) was 1.88E+07 RLU and 2.11E+07 RLU and 2.10E+07 RLU, the RLU ([2]; agonist 50000 nM) was 1.88E+07 RLU and 1.96E+07 RLU and 1.89E+07 RLU and the “increase in light production” value ([2]; saturating autoinducer, HCD, vs untreated ΔcqsA ΔluxS) was 100,000 fold. The “CqsS Dimers” value (CqsS [3]; HCD (OD600 = 2.0)) was 114.596 and 64.6161 and 71.1979 and 202.196 and 256.645 and 84.2562 and 79.0603 and 97.3422, the “CqsS Dimers” value (CqsS [3]; LCD (OD600 = 0.2)) was 74.4347 and 10.9291 and 11.9686 and 59.9755 and 52.7962 and 18.8946 and 26.4401 and 52.893 and the CqsS protein levels (CqsS [3]; ΔcqsA ΔluxS mutant, LCD and HCD) was “increased CqsS protein levels to nearly that present in the WT”. The “increase in hapA expression” value (hapA) was “over 50 fold”, the “RLU, average per biological replicate (Totals)” value (qrr4; LuxS-CqsA- strain + autoinducer, Rep 1-3) was 2.55E+08 RLU and 2.82E+08 RLU and 3.63E+08 RLU and the “reduction of qrr4-luxCDABE expression” value (qrr4; saturating autoinducer, ΔcqsA ΔluxS mutant) was 20 fold. The Qrr4-GFP/OD600 (CqsS F162A) was 18299880 and 17516110 and 17110990, the Qrr4-GFP/OD600 (CqsS C170Y) was 23520280 and 22034610 and 28130220 and the RLU (CqsS [4]; CAI-1 0.0119209 nM) was 2.86E+07 RLU. It also gave an RLU (CqsS [4]; CAI-1 0.0476837 nM) of 2.99E+07 RLU, an RLU (CqsS [4]; CAI-1 0.190735 nM) of 2.91E+07 RLU and an RLU (CqsS [4]; CAI-1 0.762939 nM) of 2.65E+07 RLU. For the same compound, the RLU (CqsS [4]; CAI-1 3.05176 nM) was 3.77E+07 RLU, the RLU (CqsS [4]; CAI-1 12.207 nM) was 1.29E+08 RLU and the RLU (CqsS [4]; CAI-1 48.8281 nM) was 1.08E+09 RLU. The RLU (CqsS [4]; CAI-1 195.312 nM) was 1.14E+10 RLU, the RLU (CqsS [4]; CAI-1 781.25 nM) was 7.27E+10 RLU and the RLU (CqsS [4]; CAI-1 3125 nM) was 1.12E+11 RLU. It also gave an RLU (CqsS [4]; CAI-1 12500 nM) of 1.47E+11 RLU and an RLU (CqsS [4]; CAI-1 50000 nM) of 1.61E+11 RLU.
